The source of these data is patent publication US20230295182A1, “SPIRO DERIVATIVES OF ALPHA-D-GALACTOPYRANOSIDES” (Idorsia Pharmaceuticals Ltd, priority 2020, published 2023).

The target of assay [1] is human Gal-3 (hGal-3) (Homo sapiens (Human), UniProt P17931). Put plainly: Competitive binding assay: biotinylated hGal-3 to microplate-adsorbed asialofetuin (ASF). The note with it: Activity on hGal-3; binding to ASF-coated plates, 3 hours at 4° C.; mean values. An outline of the steps: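 Biotinylated hGal-3 (300-1000 ng/mL) binding to plate-adsorbed asialofetuin, with DMSO-diluted compound added, incubated 3 h at 4 °C. After washing, bound protein detected with streptavidin-peroxidase (80 ng/mL, 1 h, 4 °C) and ABTS substrate, read spectrophotometrically. IC50 given as mean of several measurements.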

The target in assay [2] is human Gal-1 (hGal-1) (Homo sapiens, UniProt P09382). As to the kind of experiment: Competitive binding assay: biotinylated hGal-1 to microplate-adsorbed asialofetuin (ASF). As to conditions: Activities on hGal-1; binding to ASF-coated plates, 3 hours at 4° C.; mean values; read-out: Gal-1 IC50. Put shortly: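 Plate-adsorbed asialofetuin is incubated 3 h at 4 °C with biotinylated hGal-1, optionally its all-serine-substituted cysteine variant, plus compound dilutions. ABTS color after 1 h streptavidin-peroxidase (80 ng/mL) at 4 °C reports binding. Reported IC50 is a mean across repeat runs.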
Chain of human Gal-1 (hGal-1) (P09382 2-135 limits assumed): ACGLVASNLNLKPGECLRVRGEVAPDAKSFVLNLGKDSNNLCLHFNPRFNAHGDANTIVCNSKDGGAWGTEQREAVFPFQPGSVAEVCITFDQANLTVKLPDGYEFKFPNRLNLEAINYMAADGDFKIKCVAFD

Chain of human Gal-3 (hGal-3) (P17931 whole entry): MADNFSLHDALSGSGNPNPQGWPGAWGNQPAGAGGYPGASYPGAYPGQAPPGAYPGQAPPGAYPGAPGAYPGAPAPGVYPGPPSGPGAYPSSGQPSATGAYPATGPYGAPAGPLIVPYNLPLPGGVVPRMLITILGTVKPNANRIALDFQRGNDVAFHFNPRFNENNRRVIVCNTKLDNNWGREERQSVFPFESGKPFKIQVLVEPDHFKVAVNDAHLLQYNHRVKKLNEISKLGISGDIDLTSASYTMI

`CO[C@@H]1[C@@H](n2cc(-c3ccc(Cl)c(F)c3F)nn2)[C@@H](O)[C@@H](CO)O[C@@H]1CC1=NO[C@]2(CC[C@H](NC(C)=O)CC2)C1` [Example 2.07, N-((5r,8R)-3-(((2R,3R,4S,5R,6R)-4-(4-(4-chloro-2,3-difluorophenyl)-1H-1,2,3-triazol-1-yl)-5-hydroxy-6-(hydroxymethyl)-3-methoxytetrahydro-2H-pyran-2-yl)methyl)-1-oxa-2-azaspiro[4.5]dec-2-en-8-yl)acetamide]: the IC50 (commonly the point on the concentration scale where inhibition reaches its midpoint) in assay [1] was 62 nM; in assay [2], 910 nM.

Turning to `CO[C@@H]1[C@@H](n2cc(-c3ccc(C)c(F)c3F)nn2)[C@@H](O)[C@@H](CO)O[C@@H]1CC1=NOC2(CCNC(=O)CC2)C1` (mixture of isomers) [Example 1.76], the IC50 worked out at 110 nM in assay [1] and 2700 nM in assay [2].

Consider `CO[C@@H]1[C@@H](n2cc(-c3ccc(Br)c(F)c3F)nn2)[C@@H](O)[C@@H](CO)O[C@@H]1CC1=NOC2(CCCCC2)C1` [Example 1.17, (2R,3R,4S,5R,6R)-6-((1-oxa-2-azaspiro[4.5]dec-2-en-3-yl)methyl)-4-(4-(4-bromo-2,3-difluorophenyl)-1H-1,2,3-triazol-1-yl)-2-(hydroxymethyl)-5-methoxytetrahydro-2H-pyran-3-ol], for which the IC50 turned out to be 160 nM in assay [1] and 6000 nM in assay [2].

`CO[C@@H]1[C@@H](n2cc(-c3cc(F)c(F)c(F)c3)nn2)[C@@H](O)[C@@H](CO)O[C@@H]1CC1=NO[C@]2(CC[C@@H](C(C)C)CC2)C1` [Example 1.28, (2R,3R,4S,5R,6R)-2-(hydroxymethyl)-6-(((5s,8S)-8-isopropyl-1-oxa-2-azaspiro[4.5]dec-2-en-3-yl)methyl)-5-methoxy-4-(4-(3,4,5-trifluorophenyl)-1H-1,2,3-triazol-1-yl)tetrahydro-2H-pyran-3-ol]: the IC50 in assay [1] turned out to be 2000 nM; in assay [2] it was 6900 nM.

As to `CO[C@@H]1[C@@H](n2cc(-c3ccc(F)c(F)c3F)nn2)[C@@H](O)[C@@H](CO)O[C@@H]1CC1=NO[C@]2(CC[C@@H](NC(=O)OC(C)(C)C)CC2)C1` [Example 1.42, tert-butyl ((5s,8S)-3-(((2R,3R,4S,5R,6R)-5-hydroxy-6-(hydroxymethyl)-3-methoxy-4-(4-(2,3,4-trifluorophenyl)-1H-1,2,3-triazol-1-yl)tetrahydro-2H-pyran-2-yl)methyl)-1-oxa-2-azaspiro[4.5]dec-2-en-8-yl)carbamate], the figures for the IC50 in assay [1] and in assay [2] were 132 nM and 850 nM, respectively.

Regarding `CO[C@@H]1[C@@H](n2cc(-c3ccc(C)c(F)c3F)nn2)[C@@H](O)[C@@H](CO)O[C@@H]1CN1CC2(CCCCC2)N=C1C` [Example 4.03, (2R,3R,4S,5R,6R)-4-(4-(2,3-difluoro-4-methylphenyl)-1H-1,2,3-triazol-1-yl)-2-(hydroxymethyl)-5-methoxy-6-((2-methyl-1,3-diazaspiro[4.5]dec-1-en-3-yl)methyl)tetrahydro-2H-pyran-3-ol], the IC50 in assay [1] was determined as 74 nM; in assay [2], 1700 nM.

For `CO[C@@H]1[C@@H](n2cc(-c3cc(F)c(F)c(F)c3)nn2)[C@@H](O)[C@@H](CO)O[C@@H]1CC1=NOC2(CCN(C)CC2)C1` [Example 2.29, (2R,3R,4S,5R,6R)-2-(hydroxymethyl)-5-methoxy-6-((8-methyl-1-oxa-2,8-diazaspiro[4.5]dec-2-en-3-yl)methyl)-4-(4-(3,4,5-trifluorophenyl)-1H-1,2,3-triazol-1-yl)tetrahydro-2H-pyran-3-ol], the IC50 in assay [1] was 380 nM; in assay [2], 4800 nM.

In the case of `Cc1ccc(-c2cn([C@H]3[C@@H](O)[C@@H](CO)O[C@H](CC4=NOC5(CCOCC5)C4)[C@@H]3O)nn2)c(F)c1F` [Example 1.02, (2R,3R,4R,5R,6R)-2-((1,8-dioxa-2-azaspiro[4.5]dec-2-en-3-yl)methyl)-4-(4-(2,3-difluoro-4-methylphenyl)-1H-1,2,3-triazol-1-yl)-6-(hydroxymethyl)tetrahydro-2H-pyran-3,5-diol], the IC50 in assay [1] came to 84 nM; in assay [2], 5200 nM.

With `Cc1ccc(-c2cn([C@H]3[C@@H](O)[C@@H](CO)O[C@H](CC4=NOC5(CCCCC5)C4)[C@@H]3OCC(=O)O)nn2)c(F)c1F` [Example 2.25, 2-(((2R,3R,4S,5R,6R)-2-((1-oxa-2-azaspiro[4.5]dec-2-en-3-yl)methyl)-4-(4-(2,3-difluoro-4-methylphenyl)-1H-1,2,3-triazol-1-yl)-5-hydroxy-6-(hydroxymethyl)tetrahydro-2H-pyran-3-yl)oxy)acetic acid], the IC50 is 37 nM in assay [1] and 3700 nM in assay [2].

Turning to `CO[C@@H]1[C@@H](n2cc(-c3ccc(C)c(F)c3F)nn2)[C@@H](O)[C@@H](CO)O[C@@H]1CC1=NOC2(CCC(C(C)(C)O)CC2)C1` (stereo partly drawn) [Example 1.54, (2R,3R,4S,5R,6R)-4-(4-(2,3-difluoro-4-methylphenyl)-1H-1,2,3-triazol-1-yl)-2-(hydroxymethyl)-6-((8-(2-hydroxypropan-2-yl)-1-oxa-2-azaspiro[4.5]dec-2-en-3-yl)methyl)-5-methoxytetrahydro-2H-pyran-3-ol], the figures for the half-maximal inhibitory concentration (IC50) in assay [1] and in assay [2] were 200 nM and 5400 nM, respectively.

`O=C(CO[C@@H]1[C@@H](n2cc(-c3cc(F)c(F)c(F)c3)nn2)[C@@H](O)[C@@H](CO)O[C@@H]1CC1=NOC2(CCCCC2)C1)N1CCOCC1` [Example 1.71, 2-(((2R,3R,4S,5R,6R)-2-((1-oxa-2-azaspiro[4.5]dec-2-en-3-yl)methyl)-5-hydroxy-6-(hydroxymethyl)-4-(4-(3,4,5-trifluorophenyl)-1H-1,2,3-triazol-1-yl)tetrahydro-2H-pyran-3-yl)oxy)-1-morpholinoethan-1-one]: the IC50 in assay [1] turned out to be 200 nM; in assay [2] it was 2900 nM.

With `CO[C@@H]1[C@@H](n2cc(-c3ccc(C)c(F)c3F)nn2)[C@@H](O)[C@@H](CO)O[C@@H]1CC1=NO[C@]2(CC[C@H](C(C)(C)O)CC2)C1` [Example 1.62, (2R,3R,4S,5R,6R)-4-(4-(2,3-difluoro-4-methylphenyl)-1H-1,2,3-triazol-1-yl)-2-(hydroxymethyl)-6-(((5r,8R)-8-(2-hydroxypropan-2-yl)-1-oxa-2-azaspiro[4.5]dec-2-en-3-yl)methyl)-5-methoxytetrahydro-2H-pyran-3-ol], the IC50 is 190 nM in assay [1] and 4600 nM in assay [2].

`CO[C@@H]1[C@@H](n2cc(-c3ccc(F)c(F)c3F)nn2)[C@@H](O)[C@@H](CO)O[C@@H]1CC1=NO[C@]2(CC[C@H](C(C)(C)O)CC2)C1` [Example 1.52, (2R,3R,4S,5R,6R)-2-(hydroxymethyl)-6-(((5r,8R)-8-(2-hydroxypropan-2-yl)-1-oxa-2-azaspiro[4.5]dec-2-en-3-yl)methyl)-5-methoxy-4-(4-(2,3,4-trifluorophenyl)-1H-1,2,3-triazol-1-yl)tetrahydro-2H-pyran-3-ol]: the IC50 in assay [1] worked out at 260 nM; in assay [2] it was 2800 nM.

As for “(2R,3R,4S,5R,6R)-6-((8,8-difluoro-1-oxa-2-azaspiro[4.5]dec-2-en-3-yl)methyl)-4-(4-(2,3-difluoro-4-methylphenyl)-1H-1,2,3-triazol-1-yl)-2-(hydroxymethyl)-5-methoxytetrahydro-2H-pyran-3-ol [Example 2.27]”, the IC50 in assay [1] came to 81 nM; in assay [2] it was 11500 nM.

For the molecule `CO[C@@H]1[C@@H](n2cc(-c3cc(F)c(F)c(F)c3)nn2)[C@@H](O)[C@@H](CO)O[C@@H]1CC1=NO[C@]2(CC[C@@H](C#N)CC2)C1` [Example 1.39, (5s,8S)-3-(((2R,3R,4S,5R,6R)-5-hydroxy-6-(hydroxymethyl)-3-methoxy-4-(4-(3,4,5-trifluorophenyl)-1H-1,2,3-triazol-1-yl)tetrahydro-2H-pyran-2-yl)methyl)-1-oxa-2-azaspiro[4.5]dec-2-ene-8-carbonitrile], the values for the IC50 in assay [1] and in assay [2] were 260 nM and 7100 nM, respectively.

Regarding `CO[C@@H]1[C@@H](n2cc(-c3ccc(Cl)c(F)c3F)nn2)[C@@H](O)[C@@H](CO)O[C@@H]1CC1=NOC2(C1)CN(C(=O)OC(C)(C)C)C2` [Example 1.80, tert-butyl 7-(((2R,3R,4S,5R,6R)-4-(4-(4-chloro-2,3-difluorophenyl)-1H-1,2,3-triazol-1-yl)-5-hydroxy-6-(hydroxymethyl)-3-methoxytetrahydro-2H-pyran-2-yl)methyl)-5-oxa-2,6-diazaspiro[3.4]oct-6-ene-2-carboxylate], the IC50 in assay [1] worked out at 310 nM; in assay [2] it was 7200 nM.

In the case of `Cc1ccc(-c2cn([C@H]3[C@@H](O)[C@@H](CO)O[C@H](CC4=NOC5(CCC(F)(F)CC5)C4)[C@@H]3O)nn2)c(F)c1F` [Example 1.04, (2R,3R,4R,5R,6R)-2-((8,8-difluoro-1-oxa-2-azaspiro[4.5]dec-2-en-3-yl)methyl)-4-(4-(2,3-difluoro-4-methylphenyl)-1H-1,2,3-triazol-1-yl)-6-(hydroxymethyl)tetrahydro-2H-pyran-3,5-diol], the IC50 stood at 170 nM in assay [1] and 10400 nM in assay [2].

For `CO[C@@H]1[C@@H](n2cc(-c3cc(F)c(F)c(F)c3)nn2)[C@@H](O)[C@@H](CO)O[C@@H]1CC1=NO[C@]2(CC[C@H](C)CC2)C1` [Example 1.33, (2R,3R,4S,5R,6R)-2-(hydroxymethyl)-5-methoxy-6-(((5r,8R)-8-methyl-1-oxa-2-azaspiro[4.5]dec-2-en-3-yl)methyl)-4-(4-(3,4,5-trifluorophenyl)-1H-1,2,3-triazol-1-yl)tetrahydro-2H-pyran-3-ol], the IC50 amounted to 330 nM in assay [1] and 3700 nM in assay [2].
